This assay has as its target Dipeptidyl peptidase 4 (Homo sapiens) (UniProt P27487).

Chain of Dipeptidyl peptidase 4 (Homo sapiens) (P27487 whole entry, looked up): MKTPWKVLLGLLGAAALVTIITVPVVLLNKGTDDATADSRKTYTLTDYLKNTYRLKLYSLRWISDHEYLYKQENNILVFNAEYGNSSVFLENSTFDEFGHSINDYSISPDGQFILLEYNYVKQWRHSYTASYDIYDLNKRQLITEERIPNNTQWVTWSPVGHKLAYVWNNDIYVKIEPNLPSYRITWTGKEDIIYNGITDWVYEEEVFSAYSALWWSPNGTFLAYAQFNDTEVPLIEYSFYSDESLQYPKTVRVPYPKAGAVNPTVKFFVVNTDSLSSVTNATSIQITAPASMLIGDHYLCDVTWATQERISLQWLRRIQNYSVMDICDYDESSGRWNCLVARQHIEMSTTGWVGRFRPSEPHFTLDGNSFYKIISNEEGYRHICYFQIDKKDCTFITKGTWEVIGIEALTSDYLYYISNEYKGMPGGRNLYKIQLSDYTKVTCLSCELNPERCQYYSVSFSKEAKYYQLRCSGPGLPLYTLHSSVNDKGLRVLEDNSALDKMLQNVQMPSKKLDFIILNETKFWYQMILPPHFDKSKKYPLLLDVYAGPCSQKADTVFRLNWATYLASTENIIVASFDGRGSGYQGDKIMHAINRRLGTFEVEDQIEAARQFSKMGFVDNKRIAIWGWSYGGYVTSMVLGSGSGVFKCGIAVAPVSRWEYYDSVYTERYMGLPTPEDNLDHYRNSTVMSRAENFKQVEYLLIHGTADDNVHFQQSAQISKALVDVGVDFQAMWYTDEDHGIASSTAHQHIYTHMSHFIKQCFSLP
Description: Inhibition of human seminal fluid DPP4

One may read the IC50 as the concentration that inhibits the measured activity by half. `NC(=O)c1cccc(CN2CC3CN(C(=O)C[C@H](N)Cc4cc(F)c(F)cc4F)CCN3C2=O)c1` (stereo partly specified) showed an IC50 of 78 nM. In other words, the double-digit nanomolar range.

Values taken from ChEMBL document CHEMBL1275279, “Synthesis, biological assay in vitro and molecular docking studies of new imidazopyrazinone derivatives as potential dipeptidyl peptidase IV inhibitors” (Eur J Med Chem, 2010).
